The text below walks through data of US10004732B2 (Novartis AG, priority 2014, dated 2018).

Structures are written as SMILES. Structures can show the parent of a compound that is named as a salt. Where two headings read alike, the source gives them in different places.

What is called IC50 is the point on the concentration scale where inhibition reaches its midpoint.

Data set [1] addresses T1, PI 3-kinase alpha (Homo sapiens, UniProt P42336). Kind of data set: Kinase Glo Luminescent Kinase Assay (Kglo), assay A. The format is biochemical. The following applies: read-out: Assay A PI3Kα IC50. For orientation: In Kinase-Glo more light means more ATP remaining.
Target sequence in this assay (P42336 whole entry): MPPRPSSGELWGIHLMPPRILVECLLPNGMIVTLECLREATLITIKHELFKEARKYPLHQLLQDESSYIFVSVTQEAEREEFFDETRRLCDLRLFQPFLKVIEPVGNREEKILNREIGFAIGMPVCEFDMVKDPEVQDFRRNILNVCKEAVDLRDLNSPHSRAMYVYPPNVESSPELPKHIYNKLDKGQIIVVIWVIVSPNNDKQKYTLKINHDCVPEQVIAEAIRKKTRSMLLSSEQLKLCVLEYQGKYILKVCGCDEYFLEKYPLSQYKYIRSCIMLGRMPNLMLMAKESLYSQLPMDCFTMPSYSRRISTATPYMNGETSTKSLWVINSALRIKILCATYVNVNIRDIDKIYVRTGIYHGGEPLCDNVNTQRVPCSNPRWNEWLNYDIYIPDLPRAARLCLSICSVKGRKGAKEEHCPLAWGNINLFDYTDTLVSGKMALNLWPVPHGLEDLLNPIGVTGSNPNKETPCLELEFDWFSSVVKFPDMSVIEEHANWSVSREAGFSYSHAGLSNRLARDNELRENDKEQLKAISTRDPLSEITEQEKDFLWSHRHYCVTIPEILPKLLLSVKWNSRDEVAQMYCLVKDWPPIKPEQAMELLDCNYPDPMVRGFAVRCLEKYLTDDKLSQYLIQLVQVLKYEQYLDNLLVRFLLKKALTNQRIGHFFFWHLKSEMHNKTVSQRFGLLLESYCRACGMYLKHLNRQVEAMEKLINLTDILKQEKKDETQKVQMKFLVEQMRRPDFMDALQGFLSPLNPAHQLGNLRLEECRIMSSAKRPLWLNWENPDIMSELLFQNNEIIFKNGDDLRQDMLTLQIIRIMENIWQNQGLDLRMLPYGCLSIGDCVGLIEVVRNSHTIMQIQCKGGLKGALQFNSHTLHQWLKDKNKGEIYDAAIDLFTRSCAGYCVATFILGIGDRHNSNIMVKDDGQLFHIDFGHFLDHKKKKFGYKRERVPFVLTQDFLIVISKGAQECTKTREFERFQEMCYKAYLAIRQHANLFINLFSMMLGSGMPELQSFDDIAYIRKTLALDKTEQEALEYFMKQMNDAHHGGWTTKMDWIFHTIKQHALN
Experimental: Kinase Glo Luminescent Kinase Assay (Kglo) for Pb 3-Kinase Alpha (A), Pb 3-Kinase Beta (B), Vps34 (C), Pb 4-Kinase Beta (D)
The Kinase Glo Luminescent Kinase Assay (Promega, Madison/Wis., USA) is a homogeneous HTS method of measuring kinase activity by quantifying the amount of ATP remaining in solution following a kinase reaction.
L-α-phosphatidylinositol (PI), provided as 10 mg/ml solution in methanol, was transferred into a glass tube and dried under a nitrogen beam. It was then resuspended in 3% OctylGlucoside (1-0-n-octyl-beta-D-glucopyranoside) by vortexing and stored at 4° C. 5 μL of a mix of PI/OctylGlucoside with the PI 3-kinase alpha and PI 3-kinase beta subtypes, or Vps34 or PI 4-kinase beta were added. Kinase reactions were started by the addition of 5 μl of an ATP-mix containing in a final volume 10 μL 10 mM TRIS-HCl pH 7.5, 3 mM MgCl2, 50 mM NaCl, 0.05% CHAPS, 1 mM DTT and 1 μM ATP at room temperature.
All fits were performed with the program XLfit4 (ID Business Solutions, Guildford, UK).
Data set [2] addresses Vps34 (Homo sapiens, UniProt Q8NEB9). The data set can be described thus: Kinase Glo Luminescent Kinase Assay (Kglo), assay C. The format is biochemical. The following applies: read-out: Assay C VPS34 IC50.
The target of data set [3] is PI 4-kinase beta (Homo sapiens, UniProt Q9UBF8). The data set can be described thus: Kinase Glo Luminescent Kinase Assay (Kglo), assay D. The format is biochemical. The following applies: read-out: Assay D PI4Kβ IC50.
Data set [4] has as its target T2, PI 3-kinase gamma (Homo sapiens, UniProt P48736). Kind of data set: TR-FRET Adapta assay, assay E. The following applies: read-out: Assay E PI3Kγ IC50. It counts as biochemical.
For data set [5], the target named is T2, PI 3-kinase gamma. The data set can be described thus: Cellular U937 AKT assay K1 (MSD). The format is cell-based. The following applies: U937 cells, K1 format; read-out: Assay K1 PI3Kγ IC50.
Data set [6] has as its target T2, PI 3-kinase gamma. Kind of data set: Cellular U937 AKT assay K2 (HTRF). The format is cell-based. The note with it: U937 cells, K2 format; read-out: Assay K2 PI3Kγ IC50.
In data set [7] the test system is IL-8-induced neutrophil shape change in human whole blood. The data set can be described thus: Whole blood neutrophil shape change assay (L). It counts as cell-based. The following applies: IL-8, human whole blood, read-out: Assay L WBSC IC50.
Data set [8] is described as follows: Microsomal clearance assay (M). The note with it: intrinsic clearance in rat liver microsomes.
Experimental: The experiments were performed in 96-well glass plates at 37° C. on an automated Tecan EVO platform. Test compounds at a concentration of 10 mM in pure DMSO were diluted 1:1000 in water to 10 μM. […] Reactions were initiated by the addition of 150 μL of a cofactor solution containing 2 mM NADPH.
In data set [9] the target is T3, PI 3-kinase beta (Homo sapiens, UniProt P42338). Kind of data set: Kinase Glo Luminescent Kinase Assay (Kglo), assay B. It counts as biochemical. The following applies: read-out: Assay B PI3Kβ IC50.
Data set [10] addresses mTOR (Homo sapiens, UniProt P42345). Kind of data set: Lanthascreen kinase binding assay, assay G. The following applies: read-out: Assay G mTOR IC50.
Experimental: Lanthascreen™ Kinase Binding Assay for mTOR (G)
Binding of an inhibitor to the kinase competes for binding with the tracer, resulting in a loss of FRET.
50 nL of compound dilutions were dispensed onto white 384-well small volume polystyrene plate.
In data set [11] the target is T1, PI 3-kinase alpha. The data set can be described thus: Cellular assay H1, p-Akt (S473) in Rat-1 cells, Surefire format. The following applies: non-asterisked data: version H1 (Surefire format), Rat-1 cells; read-out: Assay H PI3Kα IC50. The format is cell-based.
Data set [12] concerns the target T3, PI 3-kinase beta. Kind of data set: Cellular assay I1, p-Akt (S473) in Rat-1 cells, Surefire format. The format is cell-based. The note with it: non-asterisked data: version I1 (Surefire format), Rat-1 cells; read-out: Assay I PI3Kβ IC50.
For data set [13], the target named is T4, PI 3-kinase delta (Homo sapiens, UniProt O00329). Kind of data set: Cellular assay J1, p-Akt (S473) in Rat-1 cells, Surefire format. The format is cell-based. The note with it: non-asterisked data: version J1 (Surefire format), Rat-1 cells; read-out: Assay J PI3Kδ IC50.
In data set [14] the target is T4, PI 3-kinase delta. The data set can be described thus: TR-FRET Adapta assay, assay F. The note with it: read-out: Assay F PI3Kδ IC50. Background: TR-FRET usually uses a lanthanide donor and a delayed reading to cut background.
Target sequence in this assay (O00329 whole entry): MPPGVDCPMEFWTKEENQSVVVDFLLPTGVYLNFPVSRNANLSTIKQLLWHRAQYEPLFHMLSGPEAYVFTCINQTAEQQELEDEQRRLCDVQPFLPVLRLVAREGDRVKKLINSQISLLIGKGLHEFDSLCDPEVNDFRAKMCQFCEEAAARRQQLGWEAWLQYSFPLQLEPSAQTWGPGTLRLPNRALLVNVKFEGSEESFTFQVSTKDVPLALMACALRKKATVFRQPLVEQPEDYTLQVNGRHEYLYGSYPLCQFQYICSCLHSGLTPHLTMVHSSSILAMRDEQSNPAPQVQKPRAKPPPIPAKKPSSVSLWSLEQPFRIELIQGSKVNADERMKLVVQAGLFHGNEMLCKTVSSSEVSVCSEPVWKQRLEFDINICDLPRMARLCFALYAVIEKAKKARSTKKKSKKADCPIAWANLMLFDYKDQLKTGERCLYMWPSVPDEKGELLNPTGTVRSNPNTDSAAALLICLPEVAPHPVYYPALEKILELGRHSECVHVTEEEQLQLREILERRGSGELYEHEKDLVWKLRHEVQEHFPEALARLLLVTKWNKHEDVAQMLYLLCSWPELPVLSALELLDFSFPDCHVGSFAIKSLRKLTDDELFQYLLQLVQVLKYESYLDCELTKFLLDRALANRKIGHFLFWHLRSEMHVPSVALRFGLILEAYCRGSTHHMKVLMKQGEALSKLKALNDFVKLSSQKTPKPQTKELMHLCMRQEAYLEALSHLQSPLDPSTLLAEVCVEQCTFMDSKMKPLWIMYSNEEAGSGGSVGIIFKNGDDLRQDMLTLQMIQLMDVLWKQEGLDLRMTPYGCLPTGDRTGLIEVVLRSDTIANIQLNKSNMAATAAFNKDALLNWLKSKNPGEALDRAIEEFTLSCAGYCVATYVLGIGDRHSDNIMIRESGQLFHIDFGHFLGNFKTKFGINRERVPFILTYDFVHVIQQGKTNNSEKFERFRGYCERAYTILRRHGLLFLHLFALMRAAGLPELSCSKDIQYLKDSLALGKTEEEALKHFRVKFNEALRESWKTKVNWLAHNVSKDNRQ
Target sequence in this assay (P27986 461-568 partner): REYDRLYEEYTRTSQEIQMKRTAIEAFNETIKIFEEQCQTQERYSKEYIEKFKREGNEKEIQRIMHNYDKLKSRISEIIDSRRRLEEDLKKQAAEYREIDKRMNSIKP
Experimental: TR-FRET Adapta Assay for PI 3-Kinase Gamma (E), PI 3-Kinase Delta (F)
The TR-FRET Adapta™ Universal Kinase Assay Kit was purchased from Invitrogen Corporation (Carlsbad/CA, USA) (Cat. No. PV5099).
PIK3CD substrate phosphatidylinositol (PI) was obtained from Invitrogen (vesicules consisting of 2 mM phosphatidylinositol (PI) in 50 mM HEPES pH7.5; Cat. No. PV5371). PIK3CG substrate phosphatidylinositol-4,5-bisphosphate (PIP(4,5)2 was obtained from Invitrogen (PIP2:PS large unilamellar vesicules consisting of 1 mM PIP2: 19 mM PS in 50 mM HEPES pH7.5, 3 mM MgCl2, 1 mM EGTA; Cat. No. PV5100).
Time-Resolved Fluorescence Resonance Energy Transfer (TR-FRET) is a technology based on energy transfer between two adjacent dyes, from an excited electron in one dye (the donor) to an electron of an adjacent dye (the acceptor) through resonance, then released as a photon. This energy transfer is detected by an increase in the fluorescence emission of the acceptor, and a decrease in the fluorescence emission of the donor. TR-FRET assays for protein kinases use a long-lifetime lanthanide Terbium or Europium chelates as the donor species which overcome interference from compound autofluorescence or light scatter from precipitated compounds, by introducing a delay after excitation by a flashlamp excitation source. Results are often expressed as a ratio of the intensities of the acceptor and donor fluorophores. The ratiometric nature of such a value corrects for differences in assay volumes between wells, as well as corrects for quenching effects due to colored compounds. The Adapta™ assay can be divided into two phases: a kinase reaction phase and an ADP detection phase. In the kinase reaction phase, all kinase reaction components are added to the well and the reaction is allowed to incubate for a set period of time specific for each kinase. […] In the presence of an inhibitor, the amount of ADP formed by the kinase reaction is reduced, and the resulting intact antibody-tracer interaction maintains a high TR-FRET signal.
50 nL of compound dilutions were dispensed onto white 384-well small volume polystyrene plate. Then 5 μL of either PI 3-kinase gamma or PI 3-kinase delta and lipid substrate (PI or PIP2:PS) followed by 5 μL of ATP (final assay volume 10 μL) are incubated at RT. The standard reaction buffer for the Adapta™ TR-FRET assay contained 10 mM Tris-HCl pH 7.5, 3 mM MgCl2, 50 mM NaCl, 1 mM DTT, 0.05% CHAPS 3-[(3-cholamidopropyl)dimethylammonio]-1-propanesulfonate).
Data are analyzed using Excel fit software or Graphpad Prism. IC50 values were derived by fitting a sigmoidal dose-response curve to a plot of assay readout over inhibitor concentration. All fits were performed with the program XLfit4 (ID Business Solutions, Guildford, UK). […] All fits were performed with the program XLfit4 (ID Business Solutions, Guildford, UK).

PI 4-kinase beta, sequence (Q9UBF8 whole entry): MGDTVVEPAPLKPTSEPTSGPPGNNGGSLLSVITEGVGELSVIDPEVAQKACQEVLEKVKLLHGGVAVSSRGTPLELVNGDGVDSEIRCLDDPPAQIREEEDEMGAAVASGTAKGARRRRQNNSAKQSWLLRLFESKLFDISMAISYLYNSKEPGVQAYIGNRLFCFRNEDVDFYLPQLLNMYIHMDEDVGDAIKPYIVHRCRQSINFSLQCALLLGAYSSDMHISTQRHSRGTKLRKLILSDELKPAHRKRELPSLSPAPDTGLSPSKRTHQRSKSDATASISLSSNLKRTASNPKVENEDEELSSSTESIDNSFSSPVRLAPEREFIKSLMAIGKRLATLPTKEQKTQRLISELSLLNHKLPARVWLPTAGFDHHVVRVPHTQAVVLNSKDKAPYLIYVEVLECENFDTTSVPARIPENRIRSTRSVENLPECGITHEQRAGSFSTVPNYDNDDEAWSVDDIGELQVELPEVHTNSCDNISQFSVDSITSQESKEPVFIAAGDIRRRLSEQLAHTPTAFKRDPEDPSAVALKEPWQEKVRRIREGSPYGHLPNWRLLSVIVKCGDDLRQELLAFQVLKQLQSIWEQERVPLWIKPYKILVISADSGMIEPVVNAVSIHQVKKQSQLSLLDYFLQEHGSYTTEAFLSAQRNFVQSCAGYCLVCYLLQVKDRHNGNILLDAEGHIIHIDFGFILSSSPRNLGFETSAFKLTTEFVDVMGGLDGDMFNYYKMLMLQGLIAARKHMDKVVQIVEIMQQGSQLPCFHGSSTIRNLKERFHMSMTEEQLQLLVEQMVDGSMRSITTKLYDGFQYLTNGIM
T2 sequence (P48736 whole entry): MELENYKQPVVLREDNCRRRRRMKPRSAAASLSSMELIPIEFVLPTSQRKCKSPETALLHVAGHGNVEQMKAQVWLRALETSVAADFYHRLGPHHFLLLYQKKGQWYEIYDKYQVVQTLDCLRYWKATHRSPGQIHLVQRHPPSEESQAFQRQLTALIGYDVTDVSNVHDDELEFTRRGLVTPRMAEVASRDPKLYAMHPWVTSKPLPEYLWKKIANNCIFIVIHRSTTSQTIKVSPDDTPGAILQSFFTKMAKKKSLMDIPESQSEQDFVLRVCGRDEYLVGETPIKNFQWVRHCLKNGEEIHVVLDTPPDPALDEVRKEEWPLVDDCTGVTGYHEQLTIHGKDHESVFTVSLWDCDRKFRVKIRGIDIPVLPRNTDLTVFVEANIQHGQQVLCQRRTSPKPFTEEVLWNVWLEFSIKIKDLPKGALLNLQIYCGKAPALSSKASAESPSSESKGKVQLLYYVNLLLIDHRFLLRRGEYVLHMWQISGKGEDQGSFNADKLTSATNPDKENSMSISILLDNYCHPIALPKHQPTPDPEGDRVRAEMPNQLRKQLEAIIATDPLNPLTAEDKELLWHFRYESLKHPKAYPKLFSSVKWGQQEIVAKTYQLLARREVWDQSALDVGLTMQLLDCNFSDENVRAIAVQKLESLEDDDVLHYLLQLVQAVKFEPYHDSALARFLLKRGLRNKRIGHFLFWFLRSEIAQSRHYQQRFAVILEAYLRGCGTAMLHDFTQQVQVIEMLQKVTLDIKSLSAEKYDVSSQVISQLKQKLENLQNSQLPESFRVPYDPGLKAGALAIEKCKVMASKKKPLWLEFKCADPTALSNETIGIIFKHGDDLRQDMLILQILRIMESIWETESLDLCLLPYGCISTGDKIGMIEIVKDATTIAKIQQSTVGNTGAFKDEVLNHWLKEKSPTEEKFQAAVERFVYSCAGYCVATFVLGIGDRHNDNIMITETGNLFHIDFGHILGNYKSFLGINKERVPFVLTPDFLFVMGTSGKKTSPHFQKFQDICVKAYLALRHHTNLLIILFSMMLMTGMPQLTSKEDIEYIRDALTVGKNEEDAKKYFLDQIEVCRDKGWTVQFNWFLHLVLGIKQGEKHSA
Vps34, sequence (Q8NEB9 whole entry, species assumed): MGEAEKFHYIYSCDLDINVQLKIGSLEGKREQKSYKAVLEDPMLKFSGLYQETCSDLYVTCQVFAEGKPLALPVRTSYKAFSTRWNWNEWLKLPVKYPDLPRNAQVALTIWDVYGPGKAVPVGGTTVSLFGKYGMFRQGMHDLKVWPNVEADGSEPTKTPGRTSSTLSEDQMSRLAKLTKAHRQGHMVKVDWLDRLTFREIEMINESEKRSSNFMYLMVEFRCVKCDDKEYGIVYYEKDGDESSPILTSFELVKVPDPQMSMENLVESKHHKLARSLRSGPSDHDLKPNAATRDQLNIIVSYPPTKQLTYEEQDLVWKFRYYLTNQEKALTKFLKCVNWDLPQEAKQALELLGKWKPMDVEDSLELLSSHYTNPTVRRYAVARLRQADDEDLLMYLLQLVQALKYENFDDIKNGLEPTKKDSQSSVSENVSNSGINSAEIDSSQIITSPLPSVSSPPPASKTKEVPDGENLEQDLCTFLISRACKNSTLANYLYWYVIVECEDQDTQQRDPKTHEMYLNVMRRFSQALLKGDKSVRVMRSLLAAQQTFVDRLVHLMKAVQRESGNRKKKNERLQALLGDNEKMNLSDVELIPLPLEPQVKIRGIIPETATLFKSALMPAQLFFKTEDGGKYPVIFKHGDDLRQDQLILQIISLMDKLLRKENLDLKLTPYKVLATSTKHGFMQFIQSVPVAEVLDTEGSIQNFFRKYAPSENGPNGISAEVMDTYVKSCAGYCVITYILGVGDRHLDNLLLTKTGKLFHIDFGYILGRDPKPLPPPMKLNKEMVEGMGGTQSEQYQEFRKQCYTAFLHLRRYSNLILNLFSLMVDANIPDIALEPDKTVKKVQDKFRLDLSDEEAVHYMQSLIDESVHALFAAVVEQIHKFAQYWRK

On to `Cc1ccc(S(=O)(=O)NCC[C@@H](O)C(F)(F)F)cc1-c1cnc(N)c(-c2cn(C)nc2C)n1` (single isomer, unassigned) [Example 52b, (R)-3-(5-Amino-6-(1,3-dimethyl-1H-pyrazol-4-yl)pyrazin-2-yl)-4-methyl-N-(4,4,4-trifluoro-3-hydroxybutyl)benzenesulfonamide or (S)-3-(5-Amino-6-(1,3-dimethyl-1H-pyrazol-4-yl)pyrazin-2-yl)-4-methyl-N-(4,4,4-trifluoro-3-hydroxybutyl)benzenesulfonamide], for which the IC50 in [1] is 230 nM; in [2] it was over 10000 nM; in data set [3], 4200 nM; in data set [4], 26 nM; in data set [5], 60 nM; in [6], 337 nM. Besides, the IC50 in [7] was 550 nM. In data set [8], the “Assay M RLM CI(int)” value came to 43 µL/min/mg.

In the case of `Cc1ccc(S(=O)(=O)N2CC(CO)C2)cc1-c1cnc(N)c(-n2cncn2)n1` [Example 127.45], the IC50 in data set [1] was 420 nM; in [9], 6200 nM; in data set [2], over 9100 nM; in [3], 3400 nM; in [4] it was 60 nM; in data set [10], over 9100 nM. The IC50 came to 6110 nM in data set [11]; 9050 nM in data set [12]; 7270 nM in data set [13]; 323 nM in data set [6]; 2640 nM in data set [7] (Homo sapiens, Neutrophil); 1500 nM in [14]. In addition, the “Assay M RLM CI(int)” value in data set [8] was 26 µL/min/mg.

For `Cc1ncc(-c2nc(-c3cc(S(=O)(=O)NCC4(O)COC4)ccc3C)cnc2N)s1` [Example 45.11, 3-(5-Amino-6-(2-methylthiazol-5-yl)pyrazin-2-yl)-N-((3-hydroxyoxetan-3-yl)methyl)-4-methylbenzenesulfonamide], the 50% inhibitory concentration (IC50) in data set [1] turned out to be 40 nM; in data set [9], 290 nM; in data set [2] it was 1600 nM; in data set [3], 1200 nM; in data set [4], 5 nM; in data set [5] it was 12 nM. The half-inhibitory concentration (IC50) in [6] stood at 26 nM; in [7] (Homo sapiens, Neutrophil), 79 nM; in data set [14] it was 130 nM. Further, the “Assay M RLM CI(int)” value in data set [8] was 43 µL/min/mg.

On to `Cc1ccc(S(=O)(=O)NCC(C)(C)O)cc1-c1cnc(N)c(-c2cnn(C)c2C)n1` [Example 46, 3-(5-Amino-6-(1,5-dimethyl-1H-pyrazol-4-yl)pyrazin-2-yl)-N-(2-hydroxy-2-methylpropyl)-4-methylbenzenesulfonamide], for which the IC50 is 220 nM in data set [1]; 820 nM in [9]; over 10000 nM in data set [2]; over 10000 nM in [3]; 26 nM in data set [4]; over 10000 nM in data set [10]. Moreover, the IC50 in data set [5] worked out at 145 nM; in data set [6], 331 nM; in data set [7] (Homo sapiens, Neutrophil) it was 730 nM; in data set [14] it was 450 nM. For the same molecule, the “Assay M RLM CI(int)” value in data set [8] came out at 24 µL/min/mg.

In the case of `Cc1ccc(S(=O)(=O)NCCN)cc1-c1cnc(N)c(-n2cncn2)n1` [Example 33, N-(2-Amino-ethyl)-3-(5-amino-6-[1,2,4]triazol-1-yl-pyrazin-2-yl)-4-methyl-benzenesulfonamide trifluoroacetic acid salt], the IC50 in data set [1] is 210 nM; in data set [9] it was 380 nM; in [2] it was over 10000 nM; in data set [3], 910 nM; in data set [4] it was 47 nM; in [10] it was 1500 nM. In addition, the half-maximal inhibitory concentration (IC50) in data set [5] was determined as 1980 nM; in data set [6], 622 nM; in data set [7] (Homo sapiens, Neutrophil), 742 nM; in [14], 780 nM. The “Assay M RLM CI(int)” value in data set [8] amounted to 12 µL/min/mg.

`Cc1ccc(S(=O)(=O)NCCC(C)(C)O)cc1-c1cnc(N)c(-c2cnn(C)n2)n1` [Example 85, 3-(5-Amino-6-(2-methyl-2H-1,2,3-triazol-4-yl)pyrazin-2-yl)-N-(3-hydroxy-3-methylbutyl)-4-methylbenzenesulfonamide]: the 50% inhibitory concentration (IC50) was 90 nM in data set [1]; 1200 nM in data set [9]; over 10000 nM in [2]; over 10000 nM in [3]; 21 nM in [4]; 7900 nM in [10]. Also, the 50% inhibitory concentration (IC50) in data set [5] is 41 nM; in data set [6] it was 65 nM; in [7] (Homo sapiens, Neutrophil) it was 497 nM; in [14] it was 120 nM. In addition, the “Assay M RLM CI(int)” value in data set [8] is 73 µL/min/mg.

With `Cc1ccc(S(=O)(=O)NC[C@@H]2COCCN2)cc1-c1cnc(N)c(-c2cn(C)nc2C)n1` [Example 128.6, (R)-3-(5-Amino-6-(1,3-dimethyl-1H-pyrazol-4-yl)pyrazin-2-yl)-4-methyl-N-(morpholin-3-ylmethyl)benzenesulfonamide], the concentration for half-maximal inhibition (IC50) in data set [1] is 190 nM; in [9], 7700 nM; in [2] it was over 10000 nM; in data set [3] it was over 10000 nM; in data set [4] it was 190 nM; in data set [11] it was over 10000 nM. Further, the concentration for half-maximal inhibition (IC50) is over 10000 nM in [12]; over 10000 nM in [13]; 193 nM in data set [6]; 2180 nM in data set [7] (Homo sapiens, Neutrophil); 300 nM in data set [14]. The “Assay M RLM CI(int)” value in data set [8] is 20 µL/min/mg.

Regarding `Cc1ncc(-c2nc(-c3cc(S(=O)(=O)NCC4(O)CCOCC4)ccc3C)cnc2N)s1` [Example 45.10, 3-(5-Amino-6-(2-methylthiazol-5-yl)pyrazin-2-yl)-N-((4-hydroxytetrahydro-2H-pyran-4-yl)methyl)-4-methylbenzenesulfonamide], the IC50 in data set [1] stood at 20 nM; in data set [9], 340 nM; in data set [2] it was 3900 nM; in data set [3], 1900 nM; in data set [4], 10 nM; in [6], 30 nM. Moreover, the IC50 in data set [7] (Homo sapiens, Neutrophil) was 662 nM; in data set [14], 150 nM. The “Assay M RLM CI(int)” value in [8] was 32 µL/min/mg.

For the molecule `Cc1ccc(S(=O)(=O)N2CC(F)C2)cc1-c1cnc(N)c(-n2cncn2)n1` [Example 127.5], the concentration for half-maximal inhibition (IC50) in [1] is 400 nM; in data set [9], 3100 nM; in data set [2], over 10000 nM; in data set [3], over 10000 nM; in data set [4] it was 100 nM; in data set [10] it was 1800 nM. Also, the concentration for half-maximal inhibition (IC50) was found to be 419 nM in data set [6]; 9680 nM in data set [7] (Homo sapiens, Neutrophil); 3900 nM in data set [14]. In addition, the “Assay M RLM CI(int)” value in data set [8] is 72 µL/min/mg.

As to `Cc1ccc(S(=O)(=O)N2CCC(F)C2)cc1-c1cnc(N)c(-n2cncn2)n1` (stereo not shown) [Example 127.2], the IC50 in data set [1] was 320 nM; in [9], 1000 nM; in data set [2] it was over 10000 nM; in data set [3] it was 1700 nM; in [4] it was 73 nM; in data set [10], 9400 nM. Moreover, the IC50 came out at 850 nM in [5]; 84 nM in [6]; 3560 nM in data set [7] (Homo sapiens, Neutrophil); 850 nM in data set [14]. For the same molecule, the “Assay M RLM CI(int)” value in [8] turned out to be 375 µL/min/mg.

With `Cc1ccc(S(=O)(=O)N2CC(C)(O)C2)cc1-c1cnc(N)c(-n2cncn2)n1` [Example 127.46], the half-maximal inhibitory concentration (IC50) in data set [1] is 1300 nM; in [9], over 9100 nM; in [2] it was over 9100 nM; in [3], 6900 nM; in data set [4], 73 nM; in data set [10], over 9100 nM. The IC50 was found to be 708 nM in data set [5]; 546 nM in [6]; 3770 nM in data set [7] (Homo sapiens, Neutrophil); 720 nM in data set [14]. In addition, the “Assay M RLM CI(int)” value in [8] is 34 µL/min/mg.

For `Cc1ccc(S(=O)(=O)NCCC2(O)CCCCC2)cc1-c1cnc(N)c(-n2cncn2)n1` [Example 127.37], the IC50 is 650 nM in [1]; 1400 nM in [9]; over 10000 nM in [2]; 8000 nM in data set [3]; 34 nM in data set [4]; over 10000 nM in [10]. For the same molecule, the half-inhibitory concentration (IC50) in data set [5] was 230 nM; in data set [6], 408 nM; in data set [7] (Homo sapiens, Neutrophil), 6220 nM; in data set [14], 1500 nM.
